How the values were obtained:
[1] = tested on: S. lividans transformed with pCAO400; experiment: Metabolism of 10001 in growing culture, HPLC of supernatant (Example 4); type: in vitro ADME, Streptomyces lividans; details: 0.12 mg/ml 10001 in culture
Experimental: (§1) Herbicides and their metabolites are measured by HPLC as described by Romesser et al., BBRC 140: 650-659 (1986), herein incorporated by reference, except that 0.1% H3 PO4 is used in both solvents. Chromatographic identity and quantitation of the herbicides and their resulting metabolites is determined by comparing them chromatographically with authentic standard compounds. Identity of the resulting metabolites is also confirmed by UV spectroscopy.
(§2) Separate cultures (50 ml) inoculated with S. lividans C37, S. lividans transformed with pCAO400 or S. lividans transformed with pCAO401 in sporulation broth containing 0.12 mg/ml of 10001 were grown with shaking at 30° C. Aliquots (1.5 ml) of each culture were removed at 24, 32, 48 and 56 hours after inoculation and the supernatant of each aliquot was analyzed by HPLC for its concentration of 10001 and its metabolites 10002 or 10003.

[2] = tested on: S. lividans transformed with pCAO401; experiment: as above; type: in vitro ADME, Streptomyces lividans; details: 0.12 mg/ml 10001 in culture
Experimental: as §1, §2

[3] = Incubation buffer without cells, time 0 (Examples 5-9, 11, 12); type: in vitro ADME; details: no cells, substrate 10001, 0 h
Experimental: A 100 ml culture of S. griseolus ATCC 11796 in sporulation broth and a 50 ml culture of S. lividans transformed with pCAO400 in YEME broth were prepared and incubated for 24 hours as described. At that time, the S. griseolus culture was split into two 50 ml aliquots into two separate flasks and 25 ml of fresh sporulation broth was added to each and 9 mg of […] was added to one of these cultures to induce cytochrome P450SU1 expression. Fresh YEME broth (25 ml) was added to the S. lividans culture. After an additional 6 hours growth at 30° C., the cells in each culture were harvested as described above, washed twice with MOPS (50 mM, pH 7.2) and recentrifuged. The cell pellets were resuspended in four cell volumes of MOPS (50 mM, pH 7.2) containing 0.2% glucose and about 100 μg/ml of 10004. These cell suspensions were incubated at 30° C. with shaking and aliqouts were taken at 2 and 5.5 hours. The supernatant of each aliquot was analyzed by HPLC and the concentrations of the sulfonylurea compound 10004 and its metabolite 10005 were determined.
S. lividans transformed respectively with pCAO200SU1-FeS-B#9, pCAO200SU#112and pCAO200 were cultured for 36 hours in 400 ml of YEME broth at 30° C. S. griseolus ATCC 11796 was similarly cultured in 400 ml of sporulation broth. Six hours before harvesting the cells, 150 ml of fresh YEME broth was added to the S. lividans cells, and the S. griseolus cells were split into two 200 ml cultures with 100 ml of fresh sporulation broth added to each. 10001 (36 mg) was added to one of the two S. griseolus cultures to induce cytochrome P450SU1. The cells were prepared as described above in Example 5 and the concentrations of the sulfonylurea compound 10006 and its metabolites 10007, 10008 or 10009 were determined.
(§3) S. lividans transformed with pCAO200SU2-FeS-A#11 and S. lividans transformed with pCAO200 were cultured for 36 hours in 400 ml of YEME broth at 30° C. S. griseolus PH2001 (mutant without SU1) was cultured in 400 ml of sporulation broth at 30° C. Nine hours before harvesting the cells, the S. griseolus PH2001 culture was divided into two 200 ml cultures. Both received 100 ml of fresh sporulation broth and one received 36 mg of 10001 to induce cytochrome P450SU2. The cells were prepared as described above in Example 6 and the concentrations of the sulfonylurea compound 10001 and its metabolites 10002 and 10003 were determined.

[4] = tested on: S. lividans pCAO200SU2-FeS-A#11; experiment: Sulfonylurea metabolism by washed cell suspension (Examples 11-12); type: in vitro ADME, Streptomyces lividans; details: substrate 10001
Experimental: as §3

S. griseolus PH3826 = experiment: Metabolism of 10001 by strains transformed with pPAT108 (Example 14); type: in vitro ADME, Streptomyces griseolus; details: substrate 10001 120 ug/ml
Experimental: (§4) S. griseolus PH2003, S. griseus PH4001, S. ambofaciens PH4002, and S. lividans JI1326 were transformed with the plasmid pPAT108. The transformed S. griseolus strain, PH3826, was cultured for 24 hours in 150 mls of sporulation broth with 5 ug/ml thiostrepton. The transformed S. griseus strain, PH3832, and the transformed S. ambofaciens strain, PH3834, were cultured for 24 hours in 150 mls of trypticase soy broth with 5 ug/ml thiostrepton. The transformed S. lividans strain, PH3822, was similarly cultured in 150 mls of YEME broth with 5 ug/ml thiostrepton. Three hours before harvesting the cells, 50 mls of fresh medium of the same type with 5 ug/ml thiostrepton was added to each culture. The cells from each of the cultures were harvested by centrifugation, washed twice with 50 mMMOPS, pH7.2 and resuspended in five cell volumes of MOPS containing 0.2% glucose and 120 ug/ml of the sulfonylurea 10001. The cell suspensions were incubated at 30° C. with shaking and aliquots were removed at 0.5, 1, 2 and 4 hours. The supernatant of each aliquot was analyzed by HPLC and the concentration of the sulfonylurea compound 10001 and its metabolites 10002 and 10003 were determined.

S. griseus PH3817 = experiment: Metabolism of 10001 by strains transformed with pCS325 (Example 15); type: in vitro ADME, Streptomyces griseus; details: substrate 10001
Experimental: as §4
(§5) S. griseolus PH2003, S. griseus PH4001, S. ambofaciens PH4002, and S. lividans JI1326 were transformed with the plasmid pCS325. Cells of the transformed strains of S. griseolus PH3809, S. griseus PH3817, S. ambofaciens PH3818, and S. lividans PH3816, were grown and treated as described in Example 14, and the concentrations of the sulfonylurea compound 10001 and its metabolites 10002 and 10003 were determined.

S. lividans PH3816 = experiment: as above; type: in vitro ADME, Streptomyces lividans; details: substrate 10001
Experimental: as §4, §5

S. lividans pCAO200 = experiment: Sulfonylurea metabolism by washed cell suspension (Examples 6-9); type: in vitro ADME, Streptomyces lividans; details: substrate 10001

Structure (SMILES): COc1cc(Cl)nc(NC(=O)NS(=O)(=O)c2ccccc2C(=O)O)n1 [compound 10003, N-[(4-chloro-6-methoxy-pyrimidin-2-yol)aminocarbonyl]-2-carboxybenzenesulfonamide]
- concentration in supernatant ([1]; 0 h): 0 µM
- concentration in supernatant ([1]; 24 h): 16 µM
- concentration in supernatant ([1]; 32 h): 22 µM
- concentration in supernatant ([1]; 48 h): 28 µM
- concentration in supernatant ([1]; 56 h): 29 µM
- concentration in supernatant ([2]; 0 h): 0 µM
- concentration in supernatant ([2]; 24 h): 26 µM
- concentration in supernatant ([2]; 32 h): 36 µM
- concentration in supernatant ([2]; 48 h): 46 µM
- concentration in supernatant ([2]; 56 h): 48 µM
- concentration in supernatant ([3]; Example 8): 0 nM
- concentration in supernatant ([3]; Example 11): 0 nM
- concentration in supernatant ([4]; 2 h): 1 µM
- concentration in supernatant ([4]; 4 h): 2 µM
- concentration in supernatant ([4]; 6 h): 3 µM
- concentration in supernatant (S. griseolus PH3826; 0.5 h): 22 µM
- concentration in supernatant (S. griseolus PH3826; 1.0 h): 58 µM
- concentration in supernatant (S. griseolus PH3826; 2.0 h): 97 µM
- concentration in supernatant (S. griseolus PH3826; 4.0 h): 107 µM
- concentration in supernatant (S. griseus PH3817; 0.5 h): 3 µM
- concentration in supernatant (S. griseus PH3817; 1.0 h): 7 µM
- concentration in supernatant (S. griseus PH3817; 2.0 h): 16 µM
- concentration in supernatant (S. griseus PH3817; 4.0 h): 23 µM
- concentration in supernatant (S. lividans PH3816; 0.5 h): 1 µM
- concentration in supernatant (S. lividans PH3816; 1.0 h): 3 µM
- concentration in supernatant (S. lividans PH3816; 2.0 h): 7 µM
- concentration in supernatant (S. lividans PH3816; 4.0 h): 11 µM
- concentration in supernatant (S. lividans pCAO200; 2 h): 1 µM
- concentration in supernatant (S. lividans pCAO200; 4 h): 1 µM
- concentration in supernatant (S. lividans pCAO200; 6 h): 2 µM
